# Experiments:
# [1] = test system: NFKBIA (Nuclear factor of kappa light polypeptide gene enhancer in B-cells inhibitor, alpha); assay: Inflammation gene regulation, mRNA q-PCR panel; assay type: cell-based; conditions: mRNA by q-PCR, 8 hours treatment, primary human MSC (dendritic cells also described); CSA-13 at 5.0 μM
# Excerpt: (§1) Cells were purchased from Lonza.com and used fresh for each test using recommended media and culture conditions. After treatment, mRNA was isolated using Qiagen RNeasy Mini Kit®, and quantified using a NanoDrop 2000® by UV at 260 nm and 260/280 ratio for purity. cDNA was made using a First Strand Kit® from SABiosciences and processed for real time PCR using a kit from the same company for selected analysis of wound healing pathways. Results from q-PCR were uploaded to the SABiosciences site and to Ingenuity.com web site for analysis and pathway mapping. On day 1, primary human MSC cells were plated at 200,000 cells/well using 6-well plates with 3 ml of recommended media—hMSC Basal Medium+BulletKit (50 ml Growth Supplement, 10 ml L-Glutamine and 0.5 ml Gentamicin Sulfate Amphotercin-B) for 24 hours. Only early passages of cells were used, and never from frozen stock. On day 2, cells were treated with compounds dissolved in DMSO diluted 1:1000 or more to avoid effects of the solvent. […] Treatment lasted 8 hours, and was followed by RNA isolation using QIAGEN RNeasy Mini Kit® (74104). RNA was measured at 260/280 nm using a NanoDrop 2000® and normalized to 2.4 ng per well, cDNA preparation was done using QIAGEN First Strand kit 330401. q-PCR was run as absolute quantification and threshold set at 0.1 units. Dendritic cells were plated at 500,000 cells/well using 24-well plate with 500 μl of Lonza LGM-3 Complete Growth Medium with and without compound. Treatment lasted 8 hours, and was followed by RNA isolation using QIAGEN RNeasy Mini Kit® (74104). RNA was measured at 260/280 nm using NanoDrop2000® and normalized to 2.4 ng per well, cDNA preparation was done using QIAGEN First Strand kit 330401. PCR was run as absolute quantification and threshold set at 0.1 units.
# [2] = test system: TNF (Tumor necrosis factor); assay: Inflammation gene regulation, mRNA q-PCR panel; assay type: cell-based; conditions: mRNA by q-PCR, 8 hours treatment, primary human MSC (dendritic cells also described); CSA-13 at 5.0 μM
# Excerpt: as §1
# [3] = test system: TLR4 (Toll-like receptor 4); assay: Inflammation gene regulation, mRNA q-PCR panel; assay type: cell-based; conditions: mRNA by q-PCR, 8 hours treatment, primary human MSC (dendritic cells also described); CSA-13 at 5.0 μM
# Excerpt: as §1
# [4] = test system: NFKB2 (Nuclear factor of kappa light polypeptide gene enhancer in B-cells 2); assay: Inflammation gene regulation, mRNA q-PCR panel; assay type: cell-based; conditions: mRNA by q-PCR, 8 hours treatment, primary human MSC (dendritic cells also described); CSA-13 at 5.0 μM
# Excerpt: as §1
# [5] = test system: TLR6 (Toll-like receptor 6); assay: Inflammation gene regulation, mRNA q-PCR panel; assay type: cell-based; conditions: mRNA by q-PCR, 8 hours treatment, primary human MSC (dendritic cells also described); CSA-13 at 5.0 μM
# Excerpt: as §1
# [6] = test system: TNFRSF1A (Tmor necrosis factor receptor superfamily member 1A); assay: Inflammation gene regulation, mRNA q-PCR panel; assay type: cell-based; conditions: mRNA by q-PCR, 8 hours treatment, primary human MSC (dendritic cells also described); CSA-13 at 5.0 μM
# Excerpt: as §1
# [7] = test system: TLR2 (Toll-like receptor 2); assay: Inflammation gene regulation, mRNA q-PCR panel; assay type: cell-based; conditions: mRNA by q-PCR, 8 hours treatment, primary human MSC (dendritic cells also described); CSA-13 at 5.0 μM
# Excerpt: as §1
# [8] = test system: TLR8 (Toll-like receptor 8); assay: Inflammation gene regulation, mRNA q-PCR panel; assay type: cell-based; conditions: mRNA by q-PCR, 8 hours treatment, primary human MSC (dendritic cells also described); CSA-13 at 5.0 μM
# Excerpt: as §1
# [9] = test system: IL1B (Interleukin-1 beta); assay: Inflammation gene regulation, mRNA q-PCR panel; assay type: cell-based; conditions: mRNA by q-PCR, 8 hours treatment, primary human MSC (dendritic cells also described); CSA-13 at 5.0 μM
# Excerpt: as §1
# [10] = test system: TLR9 (Toll-like receptor 9); assay: Inflammation gene regulation, mRNA q-PCR panel; assay type: cell-based; conditions: mRNA by q-PCR, 8 hours treatment, primary human MSC (dendritic cells also described); CSA-13 at 5.0 μM
# Excerpt: as §1
# [11] = test system: NFKB1 (Nuclear factor of kappa light polypeptide gene enhancer in B-cells 1); assay: Inflammation gene regulation, mRNA q-PCR panel; assay type: cell-based; conditions: mRNA by q-PCR, 8 hours treatment, primary human MSC (dendritic cells also described); CSA-13 at 5.0 μM
# Excerpt: as §1
# [12] = test system: IRAK2 (Interleukin-1 receptor-associated kinase 2); assay: Inflammation gene regulation, mRNA q-PCR panel; assay type: cell-based; conditions: mRNA by q-PCR, 8 hours treatment, primary human MSC (dendritic cells also described); CSA-13 at 5.0 μM
# Excerpt: as §1
# [13] = test system: IL1A (Interleukin-1 alpha); assay: Inflammation gene regulation, mRNA q-PCR panel; assay type: cell-based; conditions: mRNA by q-PCR, 8 hours treatment, primary human MSC (dendritic cells also described); CSA-13 at 5.0 μM
# Excerpt: as §1
# alveolar bone loss = conditions: topical application; cited from earlier work
Compound,Fold Regulation NFKBIA [1],Fold Regulation TNF [2],Fold Regulation TLR4 [3],Fold Regulation NFKB2 [4],Fold Regulation TLR6 [5],Fold Regulation TNFRSF1A [6],Fold Regulation TLR2 [7],Fold Regulation TLR8 [8],Fold Regulation IL1B [9],Fold Regulation TLR9 [10],Fold Regulation NFKB1 [11],Fold Regulation IRAK2 [12],Fold Regulation IL1A [13],Alveolar bone loss (alveolar bone loss)
CCCCCCCCOC(=O)CC[C@@H](C)[C@H]1CC[C@H]2[C@@H]3[C@H](OC(=O)CCN)C[C@@H]4C[C@H](OC(=O)CCN)CC[C@]4(C)[C@H]3C[C@H](OC(=O)CCN)[C@]12C [CSA-44],−52.206,−25.9588,−2.977,−2.2766,−2.392,−2.2461,−15.7179,−8.2256,−28.5329,−1.8905,−3.2891,−31.8021,−6.0325,
CCCCCN(CCCCC)CCC[C@@H](C)[C@H]1CC[C@H]2[C@@H]3[C@H](OCCCN)C[C@@H]4C[C@H](OCCCN)CC[C@]4(C)[C@H]3C[C@H](OCCCN)[C@]12C [CSA-90],−26.0352,−4.8514,−3.4278,−2.5474,−2.0885,−7.3196,−13.6933,−4.1972,−3.6734,−1.8613,−4.718,−52.0069,−6.96,
CN/C(=N/CCSCc1nc[nH]c1C)NC#N [cimetidine],,,,,,,,,,,,,,reduce alveolar bone loss

# Source: patent US10568893B2, “Methods for treating inflammation, autoimmune disorders and pain” (BRIGHAM YOUNG UNIVERSITY, priority 2013, dated 2020)
